Experimental data from PubChem BioAssay AID192 (DTP/NCI, 2004).
“And” between values parts separate entries of the source, which are not always exact repeats. Identical values can stand only once. Toxic doses and inconclusive results are not listed. The calls were made as follows: active = survival T/C of 150% or more; inactive = T/C below 125% in these data.

System: BDF1 mice, B16 melanoma ip, median survival T/C
Test: NCI In Vivo Anticancer Drug Screen. Data for tumor model B16 Melanoma (intraperitoneal) in B6D2F1 (BDF1) mice
Conditions: endpoint: median survival time, higher = longer survival
Method in brief: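 Antitumor activity is assessed in mice bearing a transplanted tumor, with survival or tumor size compared against vehicle-dosed controls and expressed as T/C.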

[1] = dose: 100.0 mg/kg/injection, schedule: Q04DX003 (ip), vehicle: Klucel (hydroxypropylcellulose) (HPC)
[2] = dose: 200.0 mg/kg/injection, schedule: Q04DX003 (ip), vehicle: Klucel (hydroxypropylcellulose) (HPC)
[3] = dose: 400.0 mg/kg/injection, schedule: Q04DX003 (ip), vehicle: Klucel (hydroxypropylcellulose) (HPC)
[4] = dose: 100.0 mg/kg/injection, schedule: Q01DX009 (ip), vehicle: saline with Tween-80
[5] = dose: 200.0 mg/kg/injection, schedule: Q01DX009 (ip), vehicle: saline with Tween-80
[6] = dose: 400.0 mg/kg/injection, schedule: Q01DX009 (ip), vehicle: saline with Tween-80
[7] = dose: 50.0 mg/kg/injection, schedule: Q01DX009 (ip), vehicle: other
[8] = dose: 12.5 mg/kg/injection, schedule: Q01DX009 (ip), vehicle: saline with Tween-80
[9] = dose: 25.0 mg/kg/injection, schedule: Q01DX009 (ip), vehicle: saline with Tween-80
[10] = dose: 50.0 mg/kg/injection, schedule: Q01DX009 (ip), vehicle: saline with Tween-80
[11] = dose: 50.0 mg/kg/injection, schedule: Q01DX009 (ip), vehicle: saline
[12] = dose: 100.0 mg/kg/injection, schedule: Q01DX009 (ip), vehicle: saline
[13] = dose: 25.0 mg/kg/injection, schedule: Q01DX009 (ip), vehicle: Klucel (hydroxypropylcellulose) (HPC)
[14] = dose: 100.0 mg/kg/injection, schedule: Q01DX009 (ip), vehicle: Klucel (hydroxypropylcellulose) (HPC)
[15] = dose: 50.0 mg/kg/injection, schedule: Q01DX009 (ip), vehicle: Klucel (hydroxypropylcellulose) (HPC)
[16] = dose: 200.0 mg/kg/injection, schedule: Q01DX009 (ip), vehicle: Klucel (hydroxypropylcellulose) (HPC)
[17] = dose: 12.5 mg/kg/injection, schedule: Q01DX009 (ip), vehicle: saline
[18] = dose: 25.0 mg/kg/injection, schedule: Q01DX009 (ip), vehicle: saline

Measured: T/C

Cc1cc2c(c3oc(C4(C)OC4C4OC4C)cc(=O)c13)C(=O)c1c(O)c(C3CC(C)(N(C)C)C(O)C(C)O3)cc(C3CC(N(C)C)C(O)C(C)O3)c1C2=O (stereo not given)
inactive: dose: 1.3 micrograms/kg/injection, schedule: Q01DX009 (ip), vehicle: clinical formulation 108 % of control | dose: 1.3 micrograms/kg/injection, schedule: Q01DX009 (ip), vehicle: saline 97 % of control | dose: 2.5 micrograms/kg/injection, schedule: Q01DX009 (ip), vehicle: clinical formulation 117 % of control | dose: 2.5 micrograms/kg/injection, schedule: Q01DX009 (ip), vehicle: saline 108 % of control | dose: 4.0 micrograms/kg/injection, schedule: Q01DX009 (ip), vehicle: Klucel (hydroxypropylcellulose) (HPC) 119 % of control | dose: 5.0 micrograms/kg/injection, schedule: Q01DX009 (ip), vehicle: Klucel (hydroxypropylcellulose) (HPC) 122 % of control | dose: 5.0 micrograms/kg/injection, schedule: Q01DX009 (ip), vehicle: saline 107 % of control and 108 % of control | dose: 8.0 micrograms/kg/injection, schedule: Q01DX009 (ip), vehicle: Klucel (hydroxypropylcellulose) (HPC) 110 % of control | dose: 10.0 micrograms/kg/injection, schedule: Q01DX009 (ip), vehicle: clinical formulation 113 % of control | dose: 10.0 micrograms/kg/injection, schedule: Q01DX009 (ip), vehicle: saline 101 % of control and 123 % of control | dose: 20.0 micrograms/kg/injection, schedule: Q01DX009 (ip), vehicle: saline 124 % of control | dose: 40.0 micrograms/kg/injection, schedule: Q01DX009 (ip), vehicle: saline 114 % of control

Nc1ccc(-c2ccc(N)c(Cl)c2)cc1Cl
inactive: [1] 111 % of control | [2] 108 % of control | [3] 100 % of control

CCOc1ccc(NC(=O)C(C)O)cc1 (stereo not given)
inactive: [4] 97 % of control | [5] 97 % of control | [6] 91 % of control

[Cl][Pt+2]([Cl])([Cl])[Cl].[NH-]C1CCCCC1.[NH-]C1CCCCC1
inactive: dose: 6.25 mg/kg/injection, schedule: Q01DX009 (ip), vehicle: other 124 % of control | dose: 12.5 mg/kg/injection, schedule: Q01DX009 (ip), vehicle: other 111 % of control | dose: 25.0 mg/kg/injection, schedule: Q01DX009 (ip), vehicle: other 112 % of control | [7] 103 % of control

Cc1cc(OC(=O)Nc2ccccc2Cl)ccc1[N+](=O)[O-]
inactive: [1] 96 % of control | [2] 96 % of control | [3] 93 % of control

CCCCCCCC/C=C\CCCCCCCC(=O)N(C)CC(=O)O
inactive: [8] 118 % of control | [9] 105 % of control | [10] 104 % of control

O=[N+]([O-])O.[Ga]
inactive: [11] 102 % of control | [12] 92 % of control

C/C(=N\O)c1ccccn1
inactive: [7] 110 % of control | dose: 100.0 mg/kg/injection, schedule: Q01DX009 (ip), vehicle: other 111 % of control | dose: 200.0 mg/kg/injection, schedule: Q01DX009 (ip), vehicle: other 97 % of control | dose: 400.0 mg/kg/injection, schedule: Q01DX009 (ip), vehicle: other 90 % of control

CC(C)N(C(=O)c1ccccc1Cl)c1ccccc1
inactive: [13] 93 % of control | [14] 106 % of control

Cc1ccc(Nc2nnc(N=Nc3ccccc3)s2)cc1C
inactive: [15] 86 % of control | [14] 91 % of control | [16] 91 % of control

COc1ccc(NC(=O)Nc2ccccc2OC)cc1
inactive: [4] 102 % of control | [5] 115 % of control | [6] 101 % of control

C[n+]1c(-c2cccc(OCCCCCCCOc3cccc(-c4c5cc(N)ccc5c5ccc(N)cc5[n+]4C)c3)c2)c2cc(N)ccc2c2ccc(N)cc21
inactive: dose: 0.02 mg/kg/injection, schedule: Q01DX009 (ip), vehicle: water 95 % of control | dose: 0.04 mg/kg/injection, schedule: Q01DX009 (ip), vehicle: water 123 % of control

Cc1ccc(C(=O)NCCCOc2ccc(N3C(N)=NC(N)=NC3(C)C)cc2Cl)cc1S(=O)(=O)F
inactive: [17] 96 % of control | [18] 91 % of control

CCCCN(CCCC)/N=C\C1=C2NC(=O)/C(C)=C\C=C/C(OC)C(OC(N)=O)/C(C)=C/C(C)C(O)C(OC)CC(C)CC(=C(OC)C1=O)C2=O (stereo not given)
inactive: dose: 12.5 mg/kg/injection, schedule: Q01DX005 (ip), vehicle: other 103 % of control | dose: 25.0 mg/kg/injection, schedule: Q01DX005 (ip), vehicle: other 94 % of control | dose: 50.0 mg/kg/injection, schedule: Q01DX005 (ip), vehicle: other 90 % of control | dose: 100.0 mg/kg/injection, schedule: Q01DX005 (ip), vehicle: other 95 % of control | dose: 200.0 mg/kg/injection, schedule: Q01DX005 (ip), vehicle: other 93 % of control

Nc1ncnc2nc[nH]c12
inactive: dose: 32.0 mg/kg/injection, schedule: Q01DX009 (ip), vehicle: Klucel (hydroxypropylcellulose) (HPC) 97 % of control | dose: 64.0 mg/kg/injection, schedule: Q01DX009 (ip), vehicle: Klucel (hydroxypropylcellulose) (HPC) 98 % of control | dose: 64.0 mg/kg/injection, schedule: Q01DX009 (ip), vehicle: saline with Tween-80 98 % of control | dose: 128.0 mg/kg/injection, schedule: Q01DX009 (ip), vehicle: Klucel (hydroxypropylcellulose) (HPC) 89 % of control

Cc1ccc(NC(=O)Nc2cccc(Cl)c2C)cc1NC(=O)Nc1cccc(Cl)c1C
inactive: dose: 6.25 mg/kg/injection, schedule: Q01DX009 (ip), vehicle: saline with Tween-80 94 % of control | [8] 86 % of control | [9] 88 % of control

CC(=O)c1ccc(F)cc1
inactive: [13] 100 % of control | [15] 106 % of control | [14] 103 % of control | [16] 106 % of control

CN(C)C(=O)c1cccc(NC(=O)NCc2cccc(N3C(N)=NC(N)=NC3(C)C)c2)c1
inactive: [17] 107 % of control | [18] 117 % of control | [11] 102 % of control

CSc1ncnc2nc[nH]c12
inactive: [15] 104 % of control | [14] 100 % of control | [16] 102 % of control | dose: 400.0 mg/kg/injection, schedule: Q01DX009 (ip), vehicle: Klucel (hydroxypropylcellulose) (HPC) 88 % of control

COc1cc(OC)cc(C(O)C(C)NC(C)C)c1 (stereo not given)
inactive: dose: 6.25 mg/kg/injection, schedule: Q01DX009 (ip), vehicle: saline 112 % of control | [11] 87 % of control | [12] 112 % of control

Cc1ccc[n+](CCc2c[nH]c3ccccc23)c1
inactive: [8] 111 % of control | [9] 99 % of control | [10] 95 % of control

NC(=O)c1nn(C2OC(CO)C(O)C2O)c2ncnc(N)c12 (stereo not given)
inactive: dose: 1.25 mg/kg/injection, schedule: Q01DX009 (ip), vehicle: Klucel (hydroxypropylcellulose) (HPC) 96 % of control | dose: 2.5 mg/kg/injection, schedule: Q01DX009 (ip), vehicle: Klucel (hydroxypropylcellulose) (HPC) 104 % of control | dose: 5.0 mg/kg/injection, schedule: Q01DX009 (ip), vehicle: Klucel (hydroxypropylcellulose) (HPC) 107 % of control | dose: 10.0 mg/kg/injection, schedule: Q01DX009 (ip), vehicle: Klucel (hydroxypropylcellulose) (HPC) 118 % of control | [13] 103 % of control
